≈ marks a conversion by molar mass, not a printed value.
What was measured:
Assay in all cases: Antibacterial assay, MIC by continuous dilution method in 96-well plates
[1] = test system: S. aureus (ATCC 25923); type: cell-based, Staphylococcus aureus; conditions: for MIC: Staphylococcus aureus, ATCC25923, S. aureus ATCC 25923, read-out: MIC (μg/mL) S. aureus
Experimental: (§1) Two Gram-positive bacteria B. subtilis (ATCC 6633) and S. aureus (ATCC 25923), and two Gram-negative bacteria E. coli (ATCC 25922) and P. aeruginosa (ATCC 27853) were used. The antibacterial assay and the determination of the MIC were assessed according to continuous dilution method in 96-well plates which has been described in our published paper. The tested substances were dissolved in DMSO and ciprofloxacin was the positive control.

[2] = test system: E. coli (ATCC 25922); type: cell-based, Escherichia coli; conditions: for MIC: Escherichia coli, ATCC25922, E. coli ATCC 25922, read-out: MIC (μg/mL) E. coli
Experimental: as §1

[3] = test system: B. subtilis (ATCC 6633); type: cell-based, Bacillus subtilis; conditions: for MIC: Bacillus subtilis, ATCC6633, B. subtilis ATCC 6633, read-out: MIC (μg/mL) B. subtilis
Experimental: as §1

[4] = test system: P. aeruginosa (ATCC 27853); type: cell-based; conditions: Pseudomonas aeruginosa, ATCC27853, read-out: MIC (μg/mL) P. aeruginosa
Experimental: as §1

| MIC [1] [µg/mL] | MIC [2] [µg/mL] | MIC [3] [µg/mL] | MIC [4] [µg/mL] | MIC (μg/mL) S. aureus ([1]; S. aureus ATCC 25923) [µg/mL] | MIC (μg/mL) E. coli ([2]; E. coli ATCC 25922) [µg/mL] | MIC (μg/mL) B. subtilis ([3]; B. subtilis ATCC 6633) [µg/mL] | Structure (SMILES) |
| --- | --- | --- | --- | --- | --- | --- | --- |
| 1.25 ± 1.1 (≈ 3.77 µM) | 1.25 ± 1.12 (≈ 3.77 µM) | 2.5 ± 1.1 (≈ 7.54 µM) | 2.5 ± 1.2 (≈ 7.54 µM) | – | – | – | O=C(O)c1cn(C2CC2)c2cc(N3CCNCC3)c(F)cc2c1=O [ciprofloxacin, reference compound] |
| > 100 | > 100 | > 100 | > 100 | – | – | – | CC(C)=C1Oc2c(ccc(CC(C)O)c2CO)C1=O (stereo not drawn) [Compound 14, ustusorane A] |
| > 100 | > 100 | > 100 | > 100 | – | – | – | CC(C)=C1Oc2c(ccc3c2[C@@H](O)O[C@H](C)C3)C1=O [Compound 12, (+)-pseudodeflectusin] |

Further lines, the compound ahead of its results:

| Structure (SMILES) | MIC [1] [µg/mL] | MIC [2] [µg/mL] | MIC [3] [µg/mL] | MIC [4] [µg/mL] | MIC (μg/mL) S. aureus ([1]; S. aureus ATCC 25923) [µg/mL] | MIC (μg/mL) E. coli ([2]; E. coli ATCC 25922) [µg/mL] | MIC (μg/mL) B. subtilis ([3]; B. subtilis ATCC 6633) [µg/mL] |
| --- | --- | --- | --- | --- | --- | --- | --- |
| CCCc1ccc(O)c(O)c1CO [Compound 6, Asperpanoid A] | > 100 | > 100 | > 100 | > 100 | – | – | – |
| CCCc1cccc(O)c1CO [Compound 8, 2-(hydroxymethyl)-3-propylphenol] | 4.15 to 12.5 (≈ 25 to 75.2 µM) | 4.15 to 12.5 (≈ 25 to 75.2 µM) | 4.15 to 12.5 (≈ 25 to 75.2 µM) | > 100 | 4.15 ± 1.12 (≈ 25 µM) | 8.3 ± 1.0 (≈ 49.9 µM) | 8.3 ± 1.1 (≈ 49.9 µM) |
| CCCc1ccc2c(c1CO)O[C@@H](C(C)(C)O)C2 [Compound 11, (−)-brassicadiol] | – | – | – | > 100 | – | – | – |

From publication PMC6723808, “New Benzofuranoids and Phenylpropanoids from the Mangrove Endophytic Fungus, Aspergillus sp. ZJ-68” (Marine Drugs, 2019)
